Experimental data as given in patent publication US20060229258A1, “Steroidal compositions containing hydroxycarboxylic acids and methods of using the same” (priority 2003, published 2006).

Test: Thermal degradation of prednicarbate during preparation of the emulsion
Type: physicochemical
Details: in the emulsion during preparation
Description: In a particularly key aspect of the present inventive process, the emulsion is cooled from a temperature of about 55 to about 85° C. to a temperature of about 25 to about 45° C. before the prednicarbate is dispersed therein. This cooling step is particularly important because a substantial amount of prednicarbate degradation products will form at temperatures above 63° C. Accordingly, it is necessary to cool the emulsion before adding the prednicarbate to maintain the high prednicarbate purity and low amount of prednicarbate degradation products essential to the present inventive compositions.

Question: Which “temperatures at which a substantial amount of prednicarbate degradation products will form” value does the source give for `CCOC(=O)O[C@]1(C(=O)COC(=O)CC)CC[C@H]2[C@@H]3CCC4=CC(=O)C=C[C@]4(C)[C@H]3[C@@H](O)C[C@@]21C` [prednicarbate] here?
Answer: above 63 °C
